Test results from patent US9284307B2, “Macrocyclic serine protease inhibitors” (Idenix Pharmaceuticals LLC, priority 2009, dated 2016).

Experiments:
HCV NS3-NS4A protease 4a = molecular target: T1, HCV NS3-NS4A protease 4a (Hepatitis C virus genotype 4a, UniProt O39929); assay: HCV protease assay (HiLyte Fluor TR/QXL 610 FRET peptide), genotype 4a; type: biochemical; settings: 2-3 nM protease, 60 min at 30° C., read-out: IC50 Against HS3/4A 4a
T1 construct: using 2-3 nM HCV NS3-NS4A protease, which was produced according to the method of Taremi et al; made in house
T1 sequence (O39929 1027-1208): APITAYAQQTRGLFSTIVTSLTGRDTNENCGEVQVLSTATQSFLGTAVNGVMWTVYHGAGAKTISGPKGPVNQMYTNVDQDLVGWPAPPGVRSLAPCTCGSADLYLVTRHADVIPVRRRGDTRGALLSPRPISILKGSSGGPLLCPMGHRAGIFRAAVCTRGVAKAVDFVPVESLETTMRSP
Experimental: Measurement of the inhibitory effect of compounds on HCV protease activity was performed using the HiLyte Fluor™ TR/QXL™ 610 FRET peptide from AnaSpec, Inc. (San Jose, Calif.) under conditions developed in-house using 2-3 nM HCV NS3-NS4A protease, which was produced according to the method of Taremi et al. (Protein Science, 1998, 7, 2143-2149). The compounds were tested at a variety of concentrations in assay buffer containing a final DMSO concentration of 5%. Reactions were allowed to proceed for 60 min at 30° C. and fluorescence measurements were recorded with a PerkinElmer Victor^3 V 1420 Multilabel Counter. The IC50 values were determined from the percent inhibition versus concentration data using a sigmoidal non-linear regression analysis based on four parameters with XLfit 4.1 software.

CYP2C9 = molecular target: T2, CYP2C9 (Homo sapiens, UniProt P11712); assay: In vitro CYP450 inhibition screen, luminogenic assay, CYP2C9; type: in vitro ADME; settings: CYP2C9 enzyme (BD Bioscience), probe substrate Luciferin-H, average of two independent experiments, read-out: IC50 (μM) or % Inhibition at 20 μM, CYP450 2C9
T2 construct: purchased BD Bioscience
T2 sequence (P11712 whole entry): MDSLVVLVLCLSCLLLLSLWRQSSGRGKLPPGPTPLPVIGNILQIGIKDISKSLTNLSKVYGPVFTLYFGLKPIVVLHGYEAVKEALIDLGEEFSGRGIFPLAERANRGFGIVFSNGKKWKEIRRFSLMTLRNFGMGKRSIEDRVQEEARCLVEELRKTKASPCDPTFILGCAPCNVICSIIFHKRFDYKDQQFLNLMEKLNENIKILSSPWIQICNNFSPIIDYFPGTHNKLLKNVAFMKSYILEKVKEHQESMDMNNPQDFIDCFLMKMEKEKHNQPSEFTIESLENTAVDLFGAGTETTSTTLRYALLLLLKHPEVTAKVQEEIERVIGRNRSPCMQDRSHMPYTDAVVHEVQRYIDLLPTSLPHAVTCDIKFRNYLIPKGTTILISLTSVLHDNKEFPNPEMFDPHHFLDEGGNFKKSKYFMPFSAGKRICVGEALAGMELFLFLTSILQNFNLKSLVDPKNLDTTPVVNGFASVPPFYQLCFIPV
Experimental: CYP2C8, 2C9, 2C19 and 2D6 (BD Bioscience) inhibition luminogenic assay was performed as per the protocol provided by Promega (P450-Glo™ Assay Technical Bulletin #TB325, P450-Glo™ Screening Systems Technical Bulletin #TB340). Test articles were prepared as 10 mM stock solutions in DMSO.
(§1) Data represent the average of two independent experiments. A represents inhibition of 5 to 10%. B represents inhibition of >10% to 20%. C represents inhibition of >20% to 30%. D represents inhibition of >30% to 40%. I represents an IC50 of 5 to 9 μM.

[1] = system: JFH-1 HCV virus (genotype 2a); assay: Genotype 2a infectious virus assay (JFH-1, HCV core ELISA in HPC cells); type: cell-based; settings: Hepatitis C virus, 120 h, 5 days
Experimental: The genotype 2a infectious virus assay measures the ability of a test compound to inhibit HCV replication in cell culture after 5 days of treatment at the time of HCV genotype 2a virus infection of a permissive human hepatoma cell line (HPC cells). The inhibition of HCV replication was measured by quantification of HCV core protein expression by an enzyme-linked immunosorbent assay (ELISA). Briefly, HPC cells were grown in DMEM containing glucose, L-glutamine and sodium pyruvate, 10% FBS, 100 IU/mL penicillin, 100 μg/mL streptomycin, 2 mM GlutaMAX, and non-essential amino acids. GlutaMAX was obtained from Invitrogen, Corp.; all other media reagents were obtained from Mediatech, Inc. For dose-response testing, ninety-six-well plates were seeded with HPC cells at a density of 2.5×10^3 cells/well in a volume of 50 μL, and incubated at 37° C./5% CO2. Three hours after plating, 50 μL of ten 5-fold serial dilutions of compound and 100 μL of genotype 2a virus were added, and cell cultures were incubated at 37° C./5% CO2. […]
The HCV in vitro infection core ELISA assay measures the ability of a test compound to inhibit replication of an infectious HCV (strain JFH-1; genotype 2a) in cell culture. […] The readout of the assay is quantification of HCV core protein by ELISA 5 days post infection with JFH-1 virus and treatment with a test compound. […]

in vitro = type: cell-based; settings: human
Experimental: For cytotoxicity evaluation, GS4.1 cells were treated with compounds as described above and cellular viability was monitored using the Cell Titer 96 AQueous One Solution Cell Proliferation Assay (Promega). CC50 values were determined from the % cytotoxicity versus concentration data with Tecan Magellan software as described above.

CYP3A4 = molecular target: T3, CYP3A4 (Homo sapiens, UniProt P08684); assay: In vitro CYP450 inhibition screen, fluorogenic assay, CYP3A4; type: in vitro ADME; settings: probe substrate 7-Benzyloxy-trifluoromethylcoumarin, average of two independent experiments, read-out: IC50 (μM) or % Inhibition at 20 μM, CYP450 3A4
T3 construct: purchased BD Bioscience 459100
T3 sequence (P08684 whole entry): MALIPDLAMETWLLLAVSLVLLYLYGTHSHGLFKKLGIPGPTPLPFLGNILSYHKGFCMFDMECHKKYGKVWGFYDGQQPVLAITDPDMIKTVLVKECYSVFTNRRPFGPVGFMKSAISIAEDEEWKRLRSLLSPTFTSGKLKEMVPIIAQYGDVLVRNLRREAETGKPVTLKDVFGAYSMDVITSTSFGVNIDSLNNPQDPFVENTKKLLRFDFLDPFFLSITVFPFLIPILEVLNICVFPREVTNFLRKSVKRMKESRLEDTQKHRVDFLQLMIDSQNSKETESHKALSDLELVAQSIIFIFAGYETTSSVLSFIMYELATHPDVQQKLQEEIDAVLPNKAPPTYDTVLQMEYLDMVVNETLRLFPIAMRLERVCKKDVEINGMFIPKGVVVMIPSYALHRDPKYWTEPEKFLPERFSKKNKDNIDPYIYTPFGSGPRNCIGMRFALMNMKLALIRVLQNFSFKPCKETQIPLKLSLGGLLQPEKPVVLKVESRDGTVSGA
Experimental: CYP1A2 (BD Bioscience Cat #459500), CYP2B6 (BD Bioscience cat #459220), and CYP3A4 (BD Bioscience Cat #459100) inhibition fluorogenic assays were performed according to the manufacturer's protocol. Test articles were prepared as 10 mM stock solutions in DMSO.
as §1

Row | SMILES | IC50 (HCV NS3-NS4A protease 4a) [µM] | inhibition at 20 µM (CYP2C9) [%] | EC50 [1] [µM] | CC50 (in vitro) [µM] | IC50 (CYP3A4) [µM]
1 | COc1ccc2c(O[C@H]3CC[C@H]4C(=O)N(C)CCCC/C=C\[C@@H]5C[C@@]5(C(=O)NS(=O)(=O)C5(C)CC5)NC(=O)[C@@H]4C3)cc(-c3nc(C(F)(F)F)cs3)nc2c1C [Compound 51] | < 1 | 20 to 30 | < 1 | 10 to 75 | 20 to 25
2 | C#Cc1csc(-c2cc(O[C@H]3CC[C@H]4C(=O)N(C)CCCC/C=C\[C@@H]5C[C@@]5(C(=O)NS(=O)(=O)C5(C)CC5)NC(=O)[C@@H]4C3)c3ccc(OC)c(C)c3n2)n1 [Compound 52, (1aR,3aR,5S,7aR,15aS,Z)-5-(2-(4-ethynylthiazol-2-yl)-7-methoxy-8-methylquinolin-4-yloxy)-9-methyl-N-(1-methylcyclopropylsulfonyl)-3,8-dioxo-1a,2,3,3a,4,5,6,7,7a,8,9,10,11,12,13,15a-hexadecahydro-1H-benzo[c]cyclopropa[g][1,6]diazacyclotetradecine-1a-carboxamide] |  | 20 to 30 | < 1 |  | 15 to 20
